Source: publication PMC6792352, “Limited Chemical Structural Diversity Found to Modulate Thyroid Hormone Receptor in the Tox21 Chemical Library” (Environmental Health Perspectives, 2019)
Where a name gives a salt, the structure may show the parent alone.

Experiment: in vitro
Settings: rat, gh3-tre-luc cells

SMILES	CC50 at 24 h (AC50 (uM) modified / 1000)	CC50 at 24 h (AC50 (uM) modified / 1000, Tox21_110001=Tox21_301333, viability, 1 nM T3 present, 24 h)
COc1nn(C(=O)NS(=O)(=O)c2ccccc2OC(F)(F)F)c(=O)n1C [Flucarbazone-sodium]	> 90 µM	–
CCCN(CCCl)c1c([N+](=O)[O-])cc(C(F)(F)F)cc1[N+](=O)[O-] [Fluchloralin]	–	> 90 µM
OC(Cn1cncn1)(Cn1cncn1)c1ccc(F)cc1F [Fluconazole]	> 90 µM	–
CC(C)C(C(=O)OC(C#N)c1cccc(Oc2ccccc2)c1)c1ccc(OC(F)F)cc1 (centres unmarked) [Flucythrinate]	> 90 µM	–
Nc1nc(=O)[nH]cc1F [Flucytosine]	> 20 µM	–
Nc1nc(F)nc2c1ncn2[C@@H]1O[C@H](CO)[C@@H](O)[C@@H]1O [Fludarabine]	52 µM	–
N#Cc1c[nH]cc1-c1cccc2c1OC(F)(F)O2 [Fludioxonil]	35.9 µM	–
C[C@]12CCC(=O)C=C1CC[C@H]1[C@@H]3CC[C@](O)(C(=O)CO)[C@@]3(C)C[C@H](O)[C@@]12F [Fludrocortisone]	> 50 µM	–
CC(C)N(C(=O)COc1nnc(C(F)(F)F)s1)c1ccc(F)cc1 [Flufenacet]	> 90 µM	–
O=C(O)c1ccccc1Nc1cccc(C(F)(F)F)c1 [Flufenamic acid]	> 50 µM	–
O=C(NC(=O)c1c(F)cccc1F)Nc1ccc(Oc2ccc(C(F)(F)F)cc2Cl)cc1F [Flufenoxuron]	34.6 µM	–
CCOC(=O)COc1cc(-n2ncc(C(F)(F)F)c(C)c2=O)c(F)cc1Cl [Flufenpyr-ethyl]	> 90 µM	–
O=C1c2ccccc2C(=O)C1c1ccc(F)cc1 [Fluindione]	> 50 µM	–
CCOC(=O)c1ncn2c1CN(C)C(=O)c1cc(F)ccc1-2 [Flumazenil]	> 50 µM	–
CC1CCc2cc(F)cc3c(=O)c(C(=O)O)cn1c23 (centres unmarked) [Flumequine]	> 50 µM	–
C[C@@H]1C[C@H]2[C@@H]3C[C@H](F)C4=CC(=O)C=C[C@]4(C)[C@@]3(F)[C@@H](O)C[C@]2(C)[C@@]1(O)C(=O)COC(=O)C(C)(C)C [Flumethasone pivalate]	> 50 µM	–

SMILES	CC50 at 24 h (AC50 (uM) modified / 1000)	CC50 at 24 h (AC50 (uM) modified / 1000, Tox21_110001=Tox21_301333, viability, 1 nM T3 present, 24 h)
CCN(Cc1c(F)cccc1Cl)c1c([N+](=O)[O-])cc(C(F)(F)F)cc1[N+](=O)[O-] [Flumetralin]	> 90 µM	–
Cc1ccn2nc(S(=O)(=O)Nc3c(F)cccc3F)nc2n1 [Flumetsulam]	> 90 µM	–
CCCCCOC(=O)COc1cc(N2C(=O)C3=C(CCCC3)C2=O)c(F)cc1Cl [Flumiclorac-pentyl]	> 90 µM	–
C#CCN1C(=O)COc2cc(F)c(N3C(=O)C4=C(CCCC4)C3=O)cc21 [Flumioxazin]	> 90 µM	–
Fc1ccc(C(c2ccc(F)cc2)N2CCN(C/C=C/c3ccccc3)CC2)cc1 [Flunarizine]	12.3 µM	–
CC1(C)O[C@@H]2C[C@H]3[C@@H]4C[C@H](F)C5=CC(=O)C=C[C@]5(C)[C@H]4[C@@H](O)C[C@]3(C)[C@]2(C(=O)CO)O1 [Flunisolide]	> 20 µM	–
Cc1c(Nc2ncccc2C(=O)O)cccc1C(F)(F)F [Flunixin meglumine]	3.99 µM	–
CC1(C)O[C@@H]2C[C@H]3[C@@H]4C[C@H](F)C5=CC(=O)C=C[C@]5(C)[C@@]4(F)[C@@H](O)C[C@]3(C)[C@]2(C(=O)CO)O1 [Fluocinolone acetonide]	> 50 µM	–
CC(=O)OCC(=O)[C@@]12OC(C)(C)O[C@@H]1C[C@H]1[C@@H]3C[C@H](F)C4=CC(=O)C=C[C@]4(C)[C@@]3(F)[C@@H](O)C[C@@]12C [Fluocinonide]	> 20 µM	–
CN(C)C(=O)Nc1cccc(C(F)(F)F)c1 [Fluometuron]	> 90 µM	–
CN1CCN(CCCN2c3ccccc3Sc3ccc(C(F)(F)F)cc32)CC1 [Fluoperazine dihydrochloride]	7.86 µM	–
c1ccc2c(c1)-c1cccc3cccc-2c13 [Fluoranthene]	> 90 µM	–
c1ccc2c(c1)Cc1ccccc1-2 [Fluorene]	> 90 µM	–
O=C(O)c1ccccc1-c1c2ccc(=O)cc-2oc2cc(O)ccc12 [Fluorescein sodium]	> 50 µM	–
O=C1OC2(c3ccc(O)cc3Oc3cc(O)ccc32)c2ccccc21 [Fluorescein]	> 50 µM	–
Fc1ccccc1 [Fluorobenzene]	> 90 µM	–
